One compound from PMC6934184, “Selective DNA-PKcs inhibition extends the therapeutic index of localized radiotherapy and chemotherapy” (The Journal of Clinical Investigation, 2019) can be followed below.

In the experiment the target is T1, TBK1 (Homo sapiens, UniProt Q9UHD2).
T1 construct: purchased Thermo Fisher Scientific (Life Technologies) SelectScreen
Kind of experiment: SelectScreen Z'LYTE. The format is biochemical. In a few lines:
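Percent values come from Thermo SelectScreen profiling of NU5455, combining activity and binding assays. CSF1R was run in Z'LYTE format at Km app ATP, and CAMK1 in Adapta format with ATP listed at 10.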

T1 sequence (Q9UHD2 whole entry): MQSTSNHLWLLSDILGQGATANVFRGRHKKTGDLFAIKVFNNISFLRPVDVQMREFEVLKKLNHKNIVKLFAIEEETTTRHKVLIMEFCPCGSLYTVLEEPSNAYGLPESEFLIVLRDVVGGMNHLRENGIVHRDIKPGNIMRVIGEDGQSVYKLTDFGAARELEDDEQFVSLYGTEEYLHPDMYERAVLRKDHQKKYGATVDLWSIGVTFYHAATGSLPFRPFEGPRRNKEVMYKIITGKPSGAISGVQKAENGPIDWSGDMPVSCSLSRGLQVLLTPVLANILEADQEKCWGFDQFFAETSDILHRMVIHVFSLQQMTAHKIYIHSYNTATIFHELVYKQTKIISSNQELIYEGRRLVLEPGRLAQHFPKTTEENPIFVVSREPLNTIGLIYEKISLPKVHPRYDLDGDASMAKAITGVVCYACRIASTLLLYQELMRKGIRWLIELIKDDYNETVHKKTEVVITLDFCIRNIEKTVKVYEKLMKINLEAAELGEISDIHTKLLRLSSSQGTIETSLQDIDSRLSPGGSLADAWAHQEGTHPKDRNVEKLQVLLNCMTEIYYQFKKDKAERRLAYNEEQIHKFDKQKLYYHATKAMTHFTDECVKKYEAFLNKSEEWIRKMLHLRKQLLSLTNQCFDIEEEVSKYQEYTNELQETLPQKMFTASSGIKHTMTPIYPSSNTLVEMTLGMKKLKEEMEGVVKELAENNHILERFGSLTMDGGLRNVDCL

For `CN(C(=O)CN1CCOCC1)c1ccc2sc3c(-c4cccc5c(=O)cc(N6CC7CCC(C6)O7)oc45)cccc3c2c1` [NU5455], the inhibition at 1 µM was determined as 2%.

In general, inhibition refers to the drop in the measured response relative to a control, in per cent.
